Entries after “also recorded” stand apart in the source; their conditions may differ. Marks after values point to notes of the source that are not given here.
Tests used:
Male ICR mice [1] = settings: mouse; cited from earlier work
Male ICR mice [2] = settings: mouse; cited from earlier work; remark: listed apart in the source
Male ICR mice [3] = settings: mouse; cited from earlier work; remark: listed apart in the source
Male ICR mice [4] = settings: mouse; cited from earlier work; remark: listed apart in the source
CB1 receptor [5] = settings: read-out: Ki CB1; cited from earlier work
CB2 receptor = settings: read-out: Ki CB2; cited from earlier work
mice [6] = settings: cited from earlier work
CB1 receptors = settings: [35S]GTPγS binding assay; cited from earlier work
mice [7] = settings: cited from earlier work; remark: listed apart in the source
CB1 receptor [8] = molecular target: CB1 receptor (Homo sapiens, UniProt P21554); test: [35S]GTPγS binding assay; assay type: biochemical
CB1 receptor (Homo sapiens, UniProt P21554), sequence (P21554 whole entry): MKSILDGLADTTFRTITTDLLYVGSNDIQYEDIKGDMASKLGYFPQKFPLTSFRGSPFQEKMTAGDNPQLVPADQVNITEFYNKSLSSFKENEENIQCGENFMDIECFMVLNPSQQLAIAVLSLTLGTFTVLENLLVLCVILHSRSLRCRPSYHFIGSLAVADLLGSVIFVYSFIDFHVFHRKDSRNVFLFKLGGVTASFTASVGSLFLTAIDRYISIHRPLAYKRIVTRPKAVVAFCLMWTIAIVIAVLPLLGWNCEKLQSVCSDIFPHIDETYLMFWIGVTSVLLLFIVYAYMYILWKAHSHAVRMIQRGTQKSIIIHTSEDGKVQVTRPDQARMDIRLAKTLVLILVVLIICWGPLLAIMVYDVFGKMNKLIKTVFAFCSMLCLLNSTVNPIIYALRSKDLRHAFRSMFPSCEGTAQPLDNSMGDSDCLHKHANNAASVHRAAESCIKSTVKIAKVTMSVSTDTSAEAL

mice [9] = test: Rimonabant antagonism of tetrad effects in mice; assay type: in vivo, mouse; settings: 3 mg/kg rimonabant, 30 mg/kg JWH-415

**Q.** For `CCCn1c(C)c(C(=O)c2cccc3ccccc23)c2ccccc21` [JWH-015, 1-propyl-2-methyl-3-(1-naphthoyl)indole], which “ED50 SA” value (Male ICR mice [1]) is on record?
**A.** The value was 18.7^e μmol / kg.

**Q.** And the “ED50 TF” value (Male ICR mice [2])?
**A.** The value was 84.7^e μmol / kg.

**Q.** And the “ED50 RT” value (Male ICR mice [3])?
**A.** The value was 99.1^e μmol / kg.

**Q.** And the “ED50 RI” value (Male ICR mice [4])?
**A.** The value was 87.2^e μmol / kg.

**Q.** Which “ED50 SA” value (Male ICR mice [1]) does the source give for `CCCCCn1cc(C(=O)c2cccc3ccccc23)c2ccccc21` [JWH-018, 1-pentyl-3-(1-naphthoyl)indole] here?
**A.** Its value is 0.44^e μmol / kg.

**Q.** And the “ED50 TF” value (Male ICR mice [2])?
**A.** Its value is 0.09^e μmol / kg.

**Q.** What about the “ED50 RT” value (Male ICR mice [3]) of the same molecule?
**A.** The value was 1.7^e μmol / kg.

**Q.** And the Ki (CB1 receptor [5])?
**A.** The Ki was 9 ± 5 nM.

**Q.** What about the Ki (CB2 receptor) of the same molecule?
**A.** Its Ki is 2.9 ± 2.6 nM.

**Q.** Which “Effect of rimonabant on cannabimimetic effects in the battery of mouse tests” value (mice [6]) does the source give for `C=C1CC[C@@H]2[C@@H](C1)c1ccc(C(C)(C)CCCCCC)cc1OC2(C)C` [JWH-104, deoxy-Δ^9(11)-THC-dimethylheptyl] here?
**A.** The value was “blocked by rimonabant”.

**Q.** What about the Ki (CB1 receptor [5]) of the same molecule?
**A.** The Ki was 909 nM.

**Q.** And the “Efficacy at CB1 receptors” value (CB1 receptors)?
**A.** The value was “low efficacy agonist”.

**Q.** And the “Substitution for THC in drug discrimination” value (mice [7])?
**A.** Its value is “did not substitute for THC”.

**Q.** Which Ki (CB1 receptor [5]) does the source give for `CCCCCn1c(C)c(C(=O)c2ccc(CC)c3ccccc23)c2ccccc21` [JWH-213] here?
**A.** The Ki was 1.5 ± 0.2 nM.

**Q.** And the Ki (CB2 receptor)?
**A.** Its Ki is 0.42 ± 0.05 nM.

**Q.** Which results are given for `CCCn1c(C)c(C(=O)c2ccc(F)c3ccccc23)c2ccccc21` [JWH-415, 2-Methyl-1-propyl-3-(4-fluoro-1-naphthoyl)indole]?
**A.** Efficacy at the CB1 receptor (CB1 receptor [8]): low efficacy agonist; Effect of rimonabant on tetrad effects (mice [9]): blocked or partially blocked; also recorded: rimonabant-reversible activity

**Q.** For `Cc1c(C(=O)c2cccc3ccccc23)c2cccc3c2n1[C@H](CN1CCOCC1)CO3` [WIN-55,212-2], which “ED50 SA” value (Male ICR mice [1]) is on record?
**A.** The value was 0.23^c μmol / kg.

**Q.** And the “ED50 TF” value (Male ICR mice [2])?
**A.** The value was 0.94^c μmol / kg.
